According to patent publication US7256207B2, “Inhibitors of cathepsin S” (IRM LLC, priority 2003, dated 2007):

Assays:
Format in all cases: biochemical
[1] = target: Cathepsin B (Homo sapiens, UniProt P07858); test: Cathepsin B inhibition assay, fluorogenic peptide substrate (selectivity for Cat. S over Cat. B); settings: ratio of cathepsin B inhibition constant to cathepsin S inhibition constant
Procedure: (§1) The optimal substrate for cathepsin B, acetyl-histidine-proline-valine-lysine-amino carbamoyl coumarin, was identified from screening a combinatorial library of fluorogenic peptide substrates (Harris, J. L., B. J. Backes, et al. Proc Natl Acad Sci U S A 2000, 97(14), 7754-9). Kinetic measurements are performed in a total reaction volume of 30 μl in 384-well microtiter plates. Cathepsin B, at a final concentration of 1.5 nM (active site), is incubated with the compounds at twelve varying concentrations in a buffer containing 100 mM NaAc (pH5.5), 1 mM EDTA, 100 mM NaCl, 0.01% Brij-35 for 20 minutes at room temperature. Control reactions in the absence of inhibitor are performed in replicates of 24. The reactions are initiated by adding the substrate, acetyl-histidine-proline-valine-lysine-amino carbamoyl coumarin, to a final concentration of 10 ™. The rate of substrate hydrolysis is measured by monitoring the increase in fluorescence at an excitation wavelength of 380 nm and an emission wavelength of 450 nm that results from cleavage of the aniline bond in the substrate by the enzyme. The apparent inhibition constants for the compounds are determined from the enzyme progress curves (Kuzmic, P., K. C. Elrod, et al. Anal Biochem 2000, 286(1), 45-50) and are then used to calculate the inhibition constants for competitive inhibitors.
(§2) Selectivity for cathepsin S in the presence of cathepsin isozymes was determined by the ratio of the cathepsin isozyme inhibition constant of a compound of the present invention to the cathepsin S inhibition constant of the same compound. Preferred compounds of the present invention selective for cathepsin S have ratios of greater than 10. More preferred compounds of the present invention selective for cathepsin S have ratios of greater than 100. Most preferred compounds of the present invention selective for cathepsin S have ratios of greater than 1000.

[2] = target: T1, Cathepsin K (Homo sapiens, UniProt P43235); test: Cathepsin K inhibition assay, fluorogenic peptide substrate (selectivity for Cat. S over Cat. K); settings: ratio of cathepsin K inhibition constant to cathepsin S inhibition constant
T1 sequence (P43235 115-329): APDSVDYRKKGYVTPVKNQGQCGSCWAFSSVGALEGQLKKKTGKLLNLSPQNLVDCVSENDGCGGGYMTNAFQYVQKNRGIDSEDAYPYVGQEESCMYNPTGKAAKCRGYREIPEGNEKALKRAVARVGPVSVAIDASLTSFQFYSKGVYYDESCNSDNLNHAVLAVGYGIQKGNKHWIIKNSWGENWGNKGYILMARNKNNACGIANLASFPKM
Procedure: as §1, with “K, acetyl-lysine-histidine-proline-lysine-amino” for “B, acetyl-histidine-proline-valine-lysine-amino”, “K,” for “B,”, “3.5” for “1.5”, “acetyl-lysine-histidine-proline-lysine-amino” for “acetyl-histidine-proline-valine-lysine-amino”, “40 μM.” for “10 ™.”
as §2

[3] = target: Cathepsin S (Homo sapiens, UniProt P25774); test: Cathepsin S inhibition assay, fluorogenic peptide substrate; settings: Cathepsin S inhibition constant; pH5.5, 20 minutes preincubation at room temperature; read-out: Ki Cat. S
Chain of Cathepsin S (P25774 115-331, species assumed): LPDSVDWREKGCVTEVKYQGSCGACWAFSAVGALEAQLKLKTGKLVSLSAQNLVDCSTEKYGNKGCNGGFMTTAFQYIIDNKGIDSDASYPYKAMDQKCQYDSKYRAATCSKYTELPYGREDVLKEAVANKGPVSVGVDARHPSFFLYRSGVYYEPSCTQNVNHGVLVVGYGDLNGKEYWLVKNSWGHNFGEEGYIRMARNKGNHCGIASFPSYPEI
Procedure: as §1, with “S,” for “B,”, “0.3-3” for “1.5”, “50 μM.” for “10 ™.”

[4] = target: Cathepsin L (Homo sapiens, UniProt P07711); test: Cathepsin L inhibition assay, fluorogenic peptide substrate (selectivity for Cat. S over Cat. L); settings: ratio of cathepsin L inhibition constant to cathepsin S inhibition constant
Chain of Cathepsin L (P07711 114-333, species assumed): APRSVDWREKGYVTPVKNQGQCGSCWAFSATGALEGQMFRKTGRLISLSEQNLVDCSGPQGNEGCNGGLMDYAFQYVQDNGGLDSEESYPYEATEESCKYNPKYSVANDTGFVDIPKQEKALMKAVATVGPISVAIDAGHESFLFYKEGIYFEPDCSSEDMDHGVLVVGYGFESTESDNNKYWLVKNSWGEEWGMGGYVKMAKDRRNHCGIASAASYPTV
Procedure: as §1, with “L, acetyl-histidine-lysine-phenylalanine-lysine-amino” for “B, acetyl-histidine-proline-valine-lysine-amino”, “L,” for “B,”, “0.1” for “1.5”, “acetyl-histidine-lysine-phenylalanine-lysine-amino” for “acetyl-histidine-proline-valine-lysine-amino”, “20 μM.” for “10 ™.”
as §2

C[C@@H](CN1CCc2cc(F)ccc21)NC(=O)O[C@@H](CC1CCCC1)Cn1cnc2cc(Cl)c(Cl)cc21 [Example 9, 1-(S)-cyclopentylmethyl-2-(5,6-dichloro-benzimidazol-1-yl)-ethyl [2-(5-fluoro-2,3-dihydro-indol-1-yl)-1-(S)-methyl-ethyl]carbamate]
Selectivity for Cat. S over Cat. B [1]: +++ (+++, >1000)
Selectivity for Cat. S over Cat. K [2]: + (+, >10)
Ki [3]: < 100 nM
Selectivity for Cat. S over Cat. L [4]: + (+, >10)
